Measured values taken from patent publication US9289444B2, “Composition for promoting hematogenesis containing quercetin 3-O-β-(2″-galloyl)-rhamnopyranoside as active ingredient” (Chungbuk National University Industry Academic Cooperation …, priority 2011, dated 2016).

Key:
[1] = test system: bone marrow failure mouse induced by busulphan (BU); test: Semisolid colonogenic assay for BFU-E in BU bone marrow failure model; type: in vivo, Balb/c mice; conditions: from 10 days to 63 days after QGR administration, vs positive control group
Method: Bone marrow failure model induced by administering busulphan (BU) was designed according to the procedures previously described by Molyneux et al (Cell Biol Toxicol 27, 13-40, 2011) and the scheme is shown in FIG. 8. BU (Sigma chemicals, Poole, Dorset, UK) was dissolved in acetone to a final concentration of 18.8 mg/ml, diluted five-fold with distilled water, and was intraperitoneally administered three times for 5 days with the dose of 0.2 ml BU solution per mouse. Equal amount of five-fold diluted acetone solution without BU was administered to vehicle control group. QGR was dissolved in dimethylsulfoxide and diluted with distilled water to a final concentration of 1.25%. Mice were orally administered every two days with QGR (0.25 mg/mouse) for 63 days. Seven or eight mice were sacrificed on days of 1, 5, 10, 16, 25, 40, 49, and 63 after BU administration and were investigated to confirm the effect of QGR to recover bone marrow failure.
In order to investigate whether QGR has an activity to promote the differentiation from hematopoietic stem cells to BFU-E namely an erythroid progenitor in the damaged bone marrow induced by BU administration, the semisolid colonogenic assay was carried out. […] 14 days later, the number of BFU-E colony was counted.

BMNCs = test: Cell viability assay (CCK-8), normoxia or hypoxia; type: cell-based, mouse
From the text: Bone marrow mononuclear cells (BMNCs) were isolated from femurs and tibias of 8 to 12-week-old male C57BL/6 mice by a previously described protocol [Kroeger K, Collins M, Ugozzoli (2009) The preparation of primary hematopoietic cell cultures from murine bone marrow for electroporation. J. Vis. Exp. 23: pii:1026. doi:10.3791/1026] and were separated from dead cells and red blood cells (RBCs) by Histopaque ([…]) (Sigma-Aldrich Chemical, St. Louis, Mo., USA) density gradient centrifugation. Thereafter, the cells were cultured in Iscove's modified Dulbecco's media (IMDM) with 15% heat inactivated fetal bovine serum (FBS), 1% bovine serum albumin (BSA), 100 units/ml penicillin and 100 μg/ml streptomycin at 37° C. in 5% CO2 humidified air. The separated blood was cultured as described previously [Oswald J, et al. (2004). Mesenchymal stem cells can be differentiated into endothelial cells in vitro. Stem Cells, 22: 377-384.] to obtain bone marrow stromal cells in α-minimum essential medium (MEM) with 20% heat inactivated FBS, 100 units/ml penicillin and 100 μg/ml streptomycin at 37° C. in 5% CO2 humidified air.
The possible cytotoxicity of QGR was examined in BMNCs. The cells were plated with a density of 5×10^3 cells/well in 96 well plates in 200 μl of medium. The cells cultured for 24 hrs with variable concentrations of QGR in either normoxia or hypoxia conditions were evaluated using a cell counting-8 assay kit (CCK-8) according to the manufacturer's instructions (Dojindo Molecular Technologies, Rockville, Md., USA). Briefly, 20 μl of CCK-8 solution was added to each well. The plates were incubated for 2 hrs in an incubator at 37° C. The resulting color was assayed at 450 nm using an EL808 microplate absorbance reader (BIO-TEK, Winooski, Vt., USA).

Compound: CC1OC(Oc2c(-c3ccc(O)c(O)c3)oc3cc(O)cc(O)c3c2=O)C(OC(=O)c2cc(O)c(O)c(O)c2)C(O)C1O (stereo not drawn) [QGR, quercetin 3-O-β-(2″-galloyl)-rhamnopyranoside]
- number of BFU-E [1]: increased significantly and consistently
- cell viability (BMNCs; 50 μM, 24 hrs): significantly increased cell viability
- cytotoxicity (BMNCs; BMNCs, 24 hrs, various concentrations): not cytotoxic
- cell viability after hypoxic damage (BMNCs; QGR post-treatment 200 μM, hypoxic damage for 24 hrs): increased cell viability
- viable cells under hypoxic damage (BMNCs; QGR pretreatment, hypoxic damage 24 hrs, vs untreated group, dose-dependent): increased the viable cells
